The values below come from article PMC8145107 (Pharmaceutics, 2021).

In one data set the target is CYP450 2D6 (Homo sapiens, UniProt P10635). Description: CYP450 enzyme inhibition, 2D6. It counts as in vitro ADME. To be noted: compound 0.05~50 μM; read-out: IC50 against CYP450 isotype 2D6.
A short description of data set [1]: Liver microsomal phase I stability assay (rat). To be noted: rat liver microsomes. It is filed as in vitro ADME.
A short description of data set [2]: Liver microsomal phase I stability assay (mouse). It counts as in vitro ADME. Particulars: mouse liver microsomes.
The next data set concerns hERG K+ channel. Description: hERG K+ channel binding assay (fluorescence polarization, red fluorescent tracer). To be noted: human, probe red fluorescent hERG channel ligand tracer; concentration treated 10 μM. How it is done: To perform the Ames test of J2 and NA49, the number of revertant colonies was counted on each compound-treated plate at the maximum concentration at which the compound was soluble and nontoxic to the S. typhimurium tester strains (Supplementary Material S1). The ratio of the number of revertant colonies in the treated plate to colonies in the vehicle plate. […] For the hERG K^+ channel binding assay of J2 and NA49, the inhibitory activity against the hERG K^+ channel and its ligand was measured using a red fluorescent hERG channel ligand tracer. The final activity was assessed as a decrease in the degree of fluorescence polarization. […]
For hERG K+ channel binding […]
assay, measuring the inhibitory activity against the hERG K+ channel and its ligand using red fluorescent hERG channel ligand tracer. Final activity was assessed by the decrease in fluorescence polarization degree.
In general terms: The hERG channel carries a current that helps repolarise heart muscle cells.

Data set [3] has as its system NIH 3T3: mouse embryonic fibroblast cell line. Description: Cytotoxicity in normal mammalian cells (NIH 3T3). It counts as cell-based. To be noted: NIH3T3, 24 h, 0.01-100 μM, read-out: IC50 of compounds in various normal mammalian cells.
The target in a further data set is CYP2C9 (Homo sapiens, UniProt P11712). Description: CYP450 enzyme inhibition, 2C9. It is filed as in vitro ADME. Particulars: compound 0.05~50 μM; read-out: IC50 against CYP450 isotype 2C9.
Another data set addresses CYP450 3A4 (Homo sapiens, UniProt P08684). Description: CYP450 enzyme inhibition, 3A4.
Another data set is described as follows: PAMPA permeability assay. Particulars: for Papp: read-out: Cell Permeability Log Papp (converted). It is filed as in vitro ADME. On the technique in general: PAMPA measures passive passage across an artificial lipid membrane.
For the next data set, the system named is normal mammalian cells. Description: Cytotoxicity, range over the normal mammalian cell panel. It is filed as cell-based. Particulars: HFL-1, L929, NIH3T3, CHO-K1, VERO; 24 h; read-out: IC50 values, range over the normal cell lines.
A further data set deals with T1, HSP27.
T1 construct: endogenous in cells; host or cells: NCI-H460
Description: HSP27 cross-linking in NCI-H460 cells (Western blot). It is filed as cell-based, human. To be noted: 0-20 μM, 24 h. On the procedure:
(§1) For polyacrylamide gel electrophoresis (PAGE) and Western blot (WB) analysis, cells were lysed with radioimmunoprecipitation assay (RIPA) buffer (50 mM Tris-HCl [pH 7.5], 150 mM NaCl, 1% NP-40, 0.1% sodium dodecyl sulfate (SDS), and 1% sodium deoxycholate) supplemented with 1 mM Na3VO4, 1 mM dithiothreitol (DTT), 1 mM phenyl-methyl-sulfonyl fluoride (PMSF), and protease inhibitor cocktail (Calbiochem). The samples were boiled for 5 min, and equal amounts of protein were analyzed by SDS-PAGE. […]
( B) NCI-H460 cells were tr eated with J2 or NA49 (0, 1, 5, 10 and 20 μM) for 24 h, and cell lysates were
detected by Western blot analysis. […]
On the technique in general: A western blot detects proteins with antibodies after separation by electrophoresis.

Data set [4] can be described thus: Pharmacokinetic study after IV injection in rats. To be noted: male, Sprague-Dawley, plasma, rat. It is filed as in vivo. The source says:
Male Sprague–Dawley rats (7-week-old) and male Institute of Cancer Research (ICR) mice (5-week-old) were purchased from Orient Bio (Seongnam, Korea) and Samtako Bio (Osan, Korea), respectively. The experimental animals were housed under conventional conditions and fasted overnight before surgery for catheterization. All procedures for animal experiments were in accordance with the guidelines by the Ewha Woman’s University Institutional Animal Care and Use Committee (IACUC, 15-049 and 16-062), Korea.
The HPLC system used for this study was an Agilent HP1100 equipped with a quaternary pump with degasser, a variable wavelength detector, a thermostatted auto-sampler, and an HPLC 2D Agilent ChemStation software. A capcell-pak C18 MG120 column (3.0 × 250 mm, 5 µm, Shiseido, Tokyo, Japan) was used at 25 °C. The mobile phase was composed of water (0.1% trifluoroacetic acid) and acetonitrile (0.1% trifluoroacetic acid) (57:43 (v/v) for J2 and 50:50 (v/v) for NA49, respectively), filtered through a 0.45 μm Millipore filter and degassed prior to use, and the flow rate was 0.5 mL/min. UV detection was performed at 248 nm for J2 and at 246 nm for NA49, and the injection volume was 40 µL for both compounds. […] The accuracy (%) was calculated by dividing the mean of the measured drug concentration by the theoretical drug concentration. […] After extraction, the supernatant was transferred to a clean insert for HPLC analysis.
J2 and NA49 were dissolved in 10% DMAc and 10% Tween® 80 solution in saline to a concentration of 2.5 mg/mL for pharmacokinetic studies. The common carotid artery of the rat was catheterized under anesthesia using isoflurane the day before administration of J2 and NA49 [27]. Rats were divided into four groups. J2 and NA49 were administered to rats by intravenous (IV) injection at doses of 2 mg/kg and 10 mg/kg, respectively. Blood samples (0.2~0.25 mL) were collected at 0, 0.033, 0.083, 0.167, 0.33, 0.67, 1, 2, 3, 5, 7, 9, and 24 h following IV administration. The plasma samples obtained after centrifugation of the blood samples were stored at −20°C until HPLC analysis. The following pharmacokinetic parameters of J2 and NA49 were estimated by non-compartmental analysis using WinNonlin® Professional version 5.2 software (Pharsight Corporation, Mountain View, CA, USA): Initial drug concentration (C0), area under the plasma concentration–time curve from 0 h to the final sampling time point (AUC0-last), elimination half-life (t1/2), apparent volume of distribution (Vd), and total clearance (Cl).

The subject of data set [5] is HSP27 recombinant protein. Description: HSP27 cross-linking with recombinant protein (Western blot). To be noted: 10 μM, 3 h. It is filed as biochemical. On the procedure:
as §1
Figure S3. […] (A) HSP25 WT protein was pretreated with NAC (N-acetyl-L-cysteine) at 20 mM for 30 min and then treated with J2 or NA49 at 10 μM. After 3 h, the dimerization of proteins was altered. ( B) NCI-H460 cells were tr eated with J2 or NA49 (0, 1, 5, 10 and 20 μM) for 24 h, and cell lysates were detected by Western blot analysis. […]

Some results are limits rather than exact numbers.

Chain of CYP450 2D6 (P10635 whole entry): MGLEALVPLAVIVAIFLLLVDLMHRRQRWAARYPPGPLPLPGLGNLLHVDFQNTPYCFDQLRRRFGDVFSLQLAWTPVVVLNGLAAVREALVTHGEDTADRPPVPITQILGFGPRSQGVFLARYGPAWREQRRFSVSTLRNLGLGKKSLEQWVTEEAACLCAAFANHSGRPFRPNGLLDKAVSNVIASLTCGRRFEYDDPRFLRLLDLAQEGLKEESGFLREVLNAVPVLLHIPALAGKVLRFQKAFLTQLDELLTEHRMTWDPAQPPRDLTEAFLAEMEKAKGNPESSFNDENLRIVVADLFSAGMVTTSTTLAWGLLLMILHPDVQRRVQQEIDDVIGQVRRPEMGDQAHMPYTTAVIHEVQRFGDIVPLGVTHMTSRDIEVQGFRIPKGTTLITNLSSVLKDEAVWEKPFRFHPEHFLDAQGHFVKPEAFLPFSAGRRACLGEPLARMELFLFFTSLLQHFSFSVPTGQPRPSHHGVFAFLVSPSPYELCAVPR
Chain of CYP2C9 (P11712 whole entry): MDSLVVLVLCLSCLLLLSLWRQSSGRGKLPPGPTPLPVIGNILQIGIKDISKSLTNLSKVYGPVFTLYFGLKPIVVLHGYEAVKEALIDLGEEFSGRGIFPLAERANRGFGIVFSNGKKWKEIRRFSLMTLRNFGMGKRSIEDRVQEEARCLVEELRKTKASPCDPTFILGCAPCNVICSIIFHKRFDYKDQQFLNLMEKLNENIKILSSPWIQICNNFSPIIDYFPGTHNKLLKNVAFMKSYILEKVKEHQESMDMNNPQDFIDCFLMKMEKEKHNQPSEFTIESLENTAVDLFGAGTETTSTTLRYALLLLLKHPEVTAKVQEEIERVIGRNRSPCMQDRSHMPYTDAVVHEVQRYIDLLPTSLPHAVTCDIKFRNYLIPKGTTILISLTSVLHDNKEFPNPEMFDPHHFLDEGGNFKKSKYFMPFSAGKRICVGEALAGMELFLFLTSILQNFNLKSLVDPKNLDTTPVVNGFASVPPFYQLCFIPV
Chain of CYP450 3A4 (P08684 whole entry): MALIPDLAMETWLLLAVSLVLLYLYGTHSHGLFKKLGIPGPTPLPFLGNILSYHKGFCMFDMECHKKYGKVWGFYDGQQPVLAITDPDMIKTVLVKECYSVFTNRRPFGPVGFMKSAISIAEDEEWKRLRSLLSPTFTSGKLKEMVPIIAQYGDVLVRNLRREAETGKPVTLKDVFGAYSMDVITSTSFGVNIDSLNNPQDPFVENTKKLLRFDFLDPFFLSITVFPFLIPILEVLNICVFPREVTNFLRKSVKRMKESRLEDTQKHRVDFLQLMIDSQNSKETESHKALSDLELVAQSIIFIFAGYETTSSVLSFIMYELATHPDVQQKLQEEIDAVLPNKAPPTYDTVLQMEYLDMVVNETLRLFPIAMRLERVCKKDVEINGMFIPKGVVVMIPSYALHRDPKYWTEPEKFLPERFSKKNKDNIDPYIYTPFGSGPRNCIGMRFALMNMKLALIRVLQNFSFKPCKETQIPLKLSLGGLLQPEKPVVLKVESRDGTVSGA
Description for CYP2C9: (§2) Permeability was evaluated with a parallel artificial membrane permeability (PAMPA) assay using an artificially generated lipid-infused membrane.
Description for PAMPA permeability assay: as §2

Take `Cc1cc(=O)c2c(O)cc(OCC3CS3)cc2o1` (centres unmarked) [J2]: the IC50 is above 50 µM at CYP450 2D6; above 100 µM in data set [3]; above 50 µM at CYP2C9; above 50 µM against CYP450 3A4; at least 91.8 µM in the data set with normal mammalian cells. Also, the “In vitro Metabolic Stability (% of remaining after 30 min)” value is reported as 2.6 ± 0.45% in data set [1] and 6.2 ± 2.55% in data set [2]. For the same compound, the inhibition at 10 μM with hERG K+ channel was 8.7 ± 2.22%. Also, in the data set “PAMPA permeability assay”, the “Cell permeability, rating” value was “low”. For the same compound, the Papp in the data set “PAMPA permeability assay” is 12.6 ×10⁻⁶ cm/s. Also, the figures for the “HSP27 cross-linking activity (altered dimerization)” value (with HSP27; in [5]) were “altered dimerization was detected” and “Altered dimerization of HSP27”, respectively. The AUC(0-t) in data set [4] (2 mg/kg) is 180 ± 50 ng·h/mL; in [4] (10 mg/kg), 1480 ± 750 ng·h/mL. For the same compound, the C0 was 1640 ± 730 ng/mL in [4] (2 mg/kg) and 6960 ± 2600 ng/mL in [4] (10 mg/kg). The distribution volume (Vd) in [4] (2 mg/kg) is 0.77 ± 0.27 L; in data set [4] (10 mg/kg) it was 1.05 ± 0.72 L. Further, the clearance in data set [4] (2 mg/kg) is 46.5 mL/min; in [4] (10 mg/kg), 31.7 mL/min. Moreover, the half-life in data set [4] (2 mg/kg) was 11.4 ± 4.2 min; in data set [4] (10 mg/kg), 27 ± 18 min.

For the compound `COc1ccc(-c2coc3cc(OCC4CS4)ccc3c2=O)c(OC)c1` (centres unmarked) [NA49], the IC50 at CYP450 2D6 is above 50 µM; in data set [3], 96.5 µM; on CYP2C9, 19.2 µM; on CYP450 3A4 it was above 50 µM; in the data set with normal mammalian cells, 83.6 to 96.5 µM. Also, the figures for the “In vitro Metabolic Stability (% of remaining after 30 min)” value in [1] and in data set [2] were 5.0 ± 1.33% and 2.4 ± 0.95%, respectively. In the data set with hERG K+ channel, this compound yielded an inhibition at 10 μM of 39 ± 3.9%. The “Cell permeability, rating” value in the data set “PAMPA permeability assay” was “moderate”. In “PAMPA permeability assay”, the apparent permeability coefficient (Papp) was 32.4 ×10⁻⁶ cm/s. The “HSP27 cross-linking activity (altered dimerization)” value in the data set on HSP27 was “slightly less than J2”; in data set [5], “stronger cross-linking activity than J2”. The AUC(0-t) in data set [4] (2 mg/kg) turned out to be 210 ± 70 ng·h/mL; in data set [4] (10 mg/kg), 1240 ± 590 ng·h/mL. Also, the results for the C0 in [4] (2 mg/kg) and in [4] (10 mg/kg) were 720 ± 400 ng/mL and 4960 ± 1120 ng/mL, respectively. For the same compound, the Vd in data set [4] (2 mg/kg) worked out at 3.35 ± 1.69 L; in data set [4] (10 mg/kg), 4.13 ± 1.87 L. The figures for the clearance in data set [4] (2 mg/kg) and in data set [4] (10 mg/kg) were 30.7 mL/min and 30 mL/min, respectively. For the same compound, the values for the half-life in data set [4] (2 mg/kg) and in data set [4] (10 mg/kg) were 84 ± 50.4 min and 93 ± 28.8 min, respectively.

By IC50 is commonly meant the midpoint of a concentration-inhibition curve. Broadly, the inhibition is the drop in the measured response relative to a control, in per cent. The low end stands for little suppression, the high end for strong suppression. By Papp is commonly meant the rate of passage across a membrane or cell layer, normalised by area and donor concentration. The term AUC(0-t) denotes the area under the concentration-time curve up to a stated or last time point. Lower therefore signals less exposure. One may read the Vd as a proportionality between amount in the body and measured concentration, not a real space. By clearance is commonly meant the rate of elimination divided by the concentration. The low end stands for inefficient removal, the high end for efficient removal. As usually defined, the half-life is how long it takes for the measured level to halve. Higher therefore signals slow decline.
